In the supplement of paper PMC11208160:

Assay: recombinant UMI read abundance after kanamycin selection (control-corrected) (log10(CPM+1)); higher = more efficient recombination; extreme values may be limits of the assay; sequences stand for … in AGTGCAGAGAAAATCGGCCAGTTTTCTCTGCCTGCAGTCCGCATGCCGTGGGACCCCTTGGGTTCTAACCTGTTGCCTAGATTTATGCAGCGGACTGCCTTTCTCCCAAAGTGATAAACCGG…AGGTTGGTTTCACT; site = the 11-nt donor
Summary of the method: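 In a pooled Escherichia coli screen for the IS621 bridge recombinase, donor and donor-binding-loop pairs were each placed with a 12-nt UMI on a plasmid bearing a promoterless kanamycin gene. This library was co-electroporated with a target plasmid encoding a fixed target and T7-inducible recombinase, and cells were plated either on IPTG (0.07 mM) plus kanamycin or without selection, in two replicates each. Recombinant UMIs were PCR-amplified across the donor–target junction and sequenced, and counts were converted to CPM, averaged over replicates, scaled by control-derived factors and reported as log10(CPM+1).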
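Further: IS621 bridge recombinase in Escherichia coli cells against a fixed T5 target plasmid.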

Sequence	recombinant UMI read abundance (log10)
ATAAGACCATGGACCGGTTTTCCCGGTAATCCGTATTTGAC (site ATAAGTCCTGT)	0
ATAAGGCCATGGACCGGTTTTCCCGGTAATCCGTATTTGAC (site AAAAGGCCTGT)	0
ATAAGGCCATGGACCGGTTTTCCCGGTAATCCGTATTTGAC (site ACAAGGCCTGT)	0
ATAAGGCCATGGACCGGTTTTCCCGGTAATCCGTATTTGAC (site AGAAGGCCTGT)	0
ATAAGGCCATGGACCGGTTTTCCCGGTAATCCGTATTTGAC (site ATAAAGCCTGT)	0
ATAAGGCCATGGACCGGTTTTCCCGGTAATCCGTATTTGAC (site ATAACGCCTGT)	0.0185
ATAAGGCCATGGACCGGTTTTCCCGGTAATCCGTATTTGAC (site ATAAGACCTGT)	0
ATAAGGCCATGGACCGGTTTTCCCGGTAATCCGTATTTGAC (site ATAAGCCCTGT)	0
ATAAGGCCATGGACCGGTTTTCCCGGTAATCCGTATTTGAC (site ATAAGGACTGT)	0.956
ATAAGGCCATGGACCGGTTTTCCCGGTAATCCGTATTTGAC (site ATAAGGCCTAT)	0.214
ATAAGGCCATGGACCGGTTTTCCCGGTAATCCGTATTTGAC (site ATAAGGCCTCT)	0.0671
ATAAGGCCATGGACCGGTTTTCCCGGTAATCCGTATTTGAC (site ATAAGGCCTGA)	0
ATAAGGCCATGGACCGGTTTTCCCGGTAATCCGTATTTGAC (site ATAAGGCCTGC)	0.147
ATAAGGCCATGGACCGGTTTTCCCGGTAATCCGTATTTGAC (site ATAAGGCCTGG)	0
ATAAGGCCATGGACCGGTTTTCCCGGTAATCCGTATTTGAC (site ATAAGGCCTGT)	0
ATAAGGCCATGGACCGGTTTTCCCGGTAATCCGTATTTGAC (site ATAAGGCCTTT)	0.131
ATAAGGCCATGGACCGGTTTTCCCGGTAATCCGTATTTGAC (site ATAAGGGCTGT)	0
ATAAGGCCATGGACCGGTTTTCCCGGTAATCCGTATTTGAC (site ATAAGGTCTGT)	1.87
ATAAGGCCATGGACCGGTTTTCCCGGTAATCCGTATTTGAC (site ATAAGTCCTGT)	0
ATAAGGCCATGGACCGGTTTTCCCGGTAATCCGTATTTGAC (site ATAATGCCTGT)	0
ATAAGGCCATGGACCGGTTTTCCCGGTAATCCGTATTTGAC (site ATACGGCCTGT)	0
ATAAGGCCATGGACCGGTTTTCCCGGTAATCCGTATTTGAC (site ATAGGGCCTGT)	0
ATAAGGCCATGGACCGGTTTTCCCGGTAATCCGTATTTGAC (site ATATGGCCTGT)	0.00516

Sequence	recombinant UMI read abundance (log10)
ATAAGGCCATGGACCGGTTTTCCCGGTAATCCGTATTTGAC (site ATCAGGCCTGT)	0
ATAAGGCCATGGACCGGTTTTCCCGGTAATCCGTATTTGAC (site ATGAGGCCTGT)	0
ATAAGGCCATGGACCGGTTTTCCCGGTAATCCGTATTTGAC (site ATTAGGCCTGT)	0
ATAAGGCCATGGACCGGTTTTCCCGGTAATCCGTATTTGAC (site CTAAGGCCTGT)	0
ATAAGGCCATGGACCGGTTTTCCCGGTAATCCGTATTTGAC (site GTAAGGCCTGT)	0
ATAAGGCCATGGACCGGTTTTCCCGGTAATCCGTATTTGAC (site TTAAGGCCTGT)	0
ATAAGGCCATGGACCGGTTTTCCCGGTAATCCGTATTTGCC (site ATAAGGCCTGA)	0
ATAAGGCCATGGACCGGTTTTCCCGGTAATCCGTATTTGCC (site ATAAGGCCTGC)	0
ATAAGGCCATGGACCGGTTTTCCCGGTAATCCGTATTTGCC (site ATAAGGCCTGG)	1.07
ATAAGGCCATGGACCGGTTTTCCCGGTAATCCGTATTTGCC (site ATAAGGCCTGT)	0
ATAAGTCCATGGACCGGTTTTCCCGGTAATCCGTATTTGAC (site ATAAGACCTGT)	0
ATAAGTCCATGGACCGGTTTTCCCGGTAATCCGTATTTGAC (site ATAAGCCCTGT)	0.569
ATAAGTCCATGGACCGGTTTTCCCGGTAATCCGTATTTGAC (site ATAAGGCCTGT)	0.787
ATAAGTCCATGGACCGGTTTTCCCGGTAATCCGTATTTGAC (site ATAAGTCCTGT)	2.13
ATAATCGCATGGACCGGTTTTCCCGGTAATCCGTATTTGGG (site ATAATCGCTCC)	0.324
ATAGAGCCATGGACCGGTTTTCCCGGTAATCCGTATTTGAA (site ATAGAGCCTTT)	0.525
ATAGCCTCATGGACCGGTTTTCCCGGTAATCCGTATTTGCG (site ATAGCCTCTCG)	2.52
ATAGCGACATGGACCGGTTTTCCCGGTAATCCGTATTTGCG (site ATAGCGACTCG)	2.61
ATAGCTGCATGGACCGGTTTTCCCGGTAATCCGTATTTGTG (site ATAGCTGCTCA)	1.35
ATAGCTGCATGGACCGGTTTTCCCGGTAATCCGTATTTGTG (site CTAGCTGCTCA)	0.647
ATAGCTGCATGGACCGGTTTTCCCGGTAATCCGTATTTGTG (site GTAGCTGCTCA)	0.00767
ATAGCTGCATGGACCGGTTTTCCCGGTAATCCGTATTTGTG (site TTAGCTGCTCA)	0.0149
ATAGGACCATGGACCGGTTTTCCCGGTAATCCGTATTTGCT (site ATAGGACCTAG)	0

Sequence	recombinant UMI read abundance (log10)
ATAGTAACATGGACCGGTTTTCCCGGTAATCCGTATTTGAG (site ATAGTAACTCT)	2.18
ATAGTACCATGGACCGGTTTTCCCGGTAATCCGTATTTGAC (site ATAGTACCTGT)	0
ATAGTAGCATGGACCGGTTTTCCCGGTAATCCGTATTTGAC (site ATAGTAGCTGT)	3.06
ATAGTAGCATGGACCGGTTTTCCCGGTAATCCGTATTTGAC (site CTAGTATCTGT)	0
ATAGTATCATGGACCGGTTTTCCCGGTAATCCGTATTTGAA (site ATAGTATCTTT)	3.09
ATAGTATCATGGACCGGTTTTCCCGGTAATCCGTATTTGAA (site CTAGTATCTGT)	0.977
ATATAGGCATGGACCGGTTTTCCCGGTAATCCGTATTTGGC (site ATATAGGCTGC)	2.39
ATATAGGCATGGACCGGTTTTCCCGGTAATCCGTATTTGGC (site ATCTAGGCTGC)	1.31
ATATAGGCATGGACCGGTTTTCCCGGTAATCCGTATTTGGC (site ATGTAGGCTGC)	1.08
ATATAGGCATGGACCGGTTTTCCCGGTAATCCGTATTTGGC (site ATTTAGGCTGC)	0.00901
ATATATCCATGGACCGGTTTTCCCGGTAATCCGTATTTGGT (site ATATATCCTAC)	0.648
ATATGCACATGGACCGGTTTTCCCGGTAATCCGTATTTGTA (site ATATGCACTTA)	2.49
ATATGCACATGGACCGGTTTTCCCGGTAATCCGTATTTGTA (site CTATGCACTTA)	0.913
ATATGCACATGGACCGGTTTTCCCGGTAATCCGTATTTGTA (site GTATGCACTTA)	0.909
ATATGCACATGGACCGGTTTTCCCGGTAATCCGTATTTGTA (site TTATGCACTTA)	1.66
ATATGGACATGGACCGGTTTTCCCGGTAATCCGTATTTGAC (site ATATGGACTGT)	2.7
ATCAACTCATGGACCGGTTTTCCCGGTAATCCGTATTTGTG (site ATCAACTCTCA)	2.13
ATCCACGCATGGACCGGTTTTCCCGGTAATCCGTATTTGAG (site ATCCAAGCTCT)	0.00979
ATCCACGCATGGACCGGTTTTCCCGGTAATCCGTATTTGAG (site ATCCACGCTCT)	0.817
ATCCACGCATGGACCGGTTTTCCCGGTAATCCGTATTTGAG (site ATCCAGGCTCT)	0.0164
ATCCACGCATGGACCGGTTTTCCCGGTAATCCGTATTTGAG (site ATCCATGCTCT)	0.00887
ATCCGAGCATGGACCGGTTTTCCCGGTAATCCGTATTTGAG (site ATCCAAGCTCT)	0.696
